Data as given in patent publication US8785483B2, “Methods for treating COPD” (The Board of Regents of the University of Texas System, priority 2010, dated 2014).

How the values were obtained:
Muc5B = experiment: Western blot of Muc5B in IL-13-treated SAEC monolayer; format: cell-based, human; conditions: IL-13 48 h, immunoblotting
Method: FIGS. 6A-6B. AR inhibition prevents IL-13-induced expression of Mucin and transcription factor SPDEF in airway epithelial cell monolayer. (A) The airway epithelial cell monolayer at ALI was serum starved without or with fidarestat and incubated with IL-13 for 18 h. Total RNA was isolated and subsequently RT-PCR was performed to assess the expression of Muc5AC and SPDEF. The bar diagrams show densitometric analysis of the corresponding blots (n=4). *p<0.001 vs Control; **p<0.001 vs IL-13; (B) The monolayer of ciliated airway cells at ALI was treated with AR inhibitor for 24 h and subsequently incubated with IL-13 for 24 or 48 h. At the end of incubation, cell lysate was prepared and subjected to western blotting using antibodies against Muc5AC, Muc5B, and SPDEF. The membranes were stripped and re-probed with antibodies against GAPDH to show the equal loading of protein. A representative blot is shown (n=4). *p<0.0001 vs Control; **p<0.001 vs IL-13. […] Protein levels were determined using Bradford reagent (Biorad, Hercules, Calif.). […] The blots were then washed, exposed to HRP-conjugated secondary antibodies (1:5,000 dilution) for 1 h, and the antigen-antibody complex was detected by enhanced chemiluminescence (Amersham Pharmacia Biotech, Piscataway, N.J., USA). […]

SAEC = experiment: Cytokines, chemokines and growth factors by Milliplex in SAEC culture media after CSE; format: cell-based, human; conditions: 24 h after CSE (50%)
Method: FIG. 2. CSE-induced changes in cytokine levels in SAEC prevented by aldose reductase (AR) inhibition. *p<0.01 Vs Control; **p<0.05 Vs CSE 50%; #p<0.001 Vs Control; ##p<0.01 Vs CSE 50% Primary human Small Airway Epithelial Cells (SAEC) obtained from Lonza (Walkersville, Md.) were normal human SAEC harvested from distal airspace of donor. The cells were cultured according to the supplier's instructions at 37° C. in humidified atmosphere containing 95% air and 5% CO2 in small airway epithelial basal medium (SABM) with supplements containing 52 μg/ml bovine pituitary extract, 0.5 ng/ml human recombinant epidermal growth factor (EGF), 0.5 μg/ml epinephrine, 1 μg/ml hydrocortisone, 10 μg/ml transferrin, 5 μg/ml insulin, 0.1 ng/ml retinoic acid (RA), 6.5 ng/ml triiodothyronine, 50 μg/ml Gentamicin/Amphotericin-B (GA-1000), and 50 μg/ml fatty acid-free bovine serum albumin (BSA). Research-grade cigarettes (1R3F) with a filter from the Kentucky Tobacco Research and Development Center at the University of Kentucky (Lexington, Ky.) were smoked to 0.5 cm above the filter in a fume hood, using a modification of the method developed by Carp and Janoff (Am Rev Respir Dis. 1978; 118(3):617-621). […] The levels of cytokines and chemokines in the supernatant were determined by Milliplex MAP kits according to the manufacturer's instructions (Millipore Corporation, Bellerica, Mass.)).

NC(=O)[C@@H]1C[C@]2(NC(=O)NC2=O)c2cc(F)ccc2O1 [fidarestat, (2S,4S)-2-aminoformyl-6-fluoro-spiro[chroman-4,4′-imidazolidine]-2′,5′-dione] was tested, and the “prevention of IL-13-induced increase in Muc5B protein” value (Muc5B) was ~50%, the “prevention of CSE-induced increase in chemokines (G-CSF, MCP-1, GM-CSF, IP-10) and growth factors (TGF-α, VEGF)” value (SAEC) was “more than 50%” and the “prevention of CSE-induced increase in cytokines (IL-1a, IL-8, TNF-α)” value (SAEC) was “significantly (p<0.05 and 0.01) prevented”.
